Broadly, the IC50 is the concentration that gives 50% inhibition.

Data set [1] concerns Target C. Put plainly: RT-qPCR canonical junction panel assay, Target C mRNA. It counts as cell-based. Particulars: Table 4, read-out: Target C IC50 (decrease in CJ mRNA levels). A digest of the protocol:
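A673 or K562 cells treated with compound; CJ mRNA quantified by junction-spanning RT-qPCR probe after cDNA synthesis, normalised to GAPDH, GUSB or PPIA and DMSO (2^−ΔΔCt), scaled to set ΔCt assay window; IC50 from 4-parameter fit of CJ decrease.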

For data set [2], the system named is HTT. Put plainly: HiBiT protein abundance assay, HTT (K562 HiBiT knock-in). It counts as cell-based, human. The conditions noted are these: HiBiT knock-in K562 cells, 24 hours, top dose 10 μM. A digest of the protocol: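 Steps: seed HiBiT knock-in K562 cells; add compound in 10-point 3-fold series from 10 μM final; incubate 24 h, 37 °C; add lytic HiBiT reagent, shake 5 min, wait 10 min; read luminescence. Normalize to parental K562 and DMSO controls, fit 4PL, take IC50.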
A general note: The HiBiT peptide binds its large partner to form an active luciferase.

The test system of data set [3] is K562 cells. Put plainly: Cell Titer Glo 2.0 cell viability (toxicity) assay, K562. The conditions noted are these: 500 cells/well, 72 hours. In general terms: Cellular ATP, detected with luciferase, serves as a proxy for viable cell number.

Structures can show the parent of a compound that is named as a salt.

Take `C[C@H]1CN(c2cc(F)c3nc(-c4cc(F)c5nn(C)cc5c4)ccc3c2)C[C@H](C)N1` (single isomer, unassigned) [Compound 760]: the IC50 in data set [1] and in data set [2] was 100 to 1000 nM throughout. For the same compound, the “Effect of Exemplary Compounds on Cell Viability, K562” value (from here on “Effect of Exemplary Compounds”) in data set [3] is reported as “B (B represents 100-1000 nM)”.

Turning to `C[C@H]1CN(c2cc(F)c3nc(-c4cc5cn(C)nc5cc4O)ccc3c2)C[C@H](C)N1` (single isomer, unassigned) [Compound 770], the IC50 in data set [1] is 100 to 1000 nM; in data set [2], under 100 nM. Also, the “Effect of Exemplary Compounds” value in data set [3] is given as “B (B represents 100-1000 nM)”.

Turning to `Cc1cn2nc(-c3ccc4cc(N5C[C@H](C)N[C@@H](C)C5)cc(F)c4n3)cc(C)c2n1` (single isomer, unassigned) [Compound 799], the IC50 in data set [1] was in the range of 1000 to 10000 nM; in data set [2], 100 to 1000 nM. Further, the “Effect of Exemplary Compounds” value in data set [3] is listed as “B (B represents 100-1000 nM)”.

On to `Cc1c(O)c(-c2ccc3cc(N4C[C@H](C)N[C@@H](C)C4)cc(F)c3n2)cc2cn(C)nc12` (single isomer, unassigned) [Compound 800, 2,2,2-trifluoroacetate], for which the IC50 in data set [1] was 100 to 1000 nM; in data set [2] it was under 100 nM. Also, the “Effect of Exemplary Compounds” value in data set [3] is “A (A represents <100 nM)”.

Take `Cc1nc(-c2cc3cn(C)nc3cc2O)nc2ccc(N3C[C@H](C)N[C@@H](C)C3)cc12` (single isomer, unassigned) [Compound 806]: the half-inhibitory concentration (IC50) in data set [1] was over 10000 nM; in data set [2], 100 to 1000 nM. In addition, in data set [3], the “Effect of Exemplary Compounds” value was “B (B represents 100-1000 nM)”.

As to `Cc1nc(-c2cc3cn(C)nc3c(C)c2O)nc2ccc(N3C[C@H](C)N[C@@H](C)C3)cc12` (single isomer, unassigned) [Compound 807], the IC50 was over 10000 nM in data set [1] and 100 to 1000 nM in data set [2]. Also, the “Effect of Exemplary Compounds” value in data set [3] is listed as “B (B represents 100-1000 nM)”.

As to `Cn1cc2cc(-c3cc4ccc(C5CCNCC5)nc4cn3)c(O)cc2n1` [Compound 104], the half-maximal inhibitory concentration (IC50) in data set [1] and in data set [2] was 1000 to 10000 nM throughout. In addition, the “Effect of Exemplary Compounds” value in data set [3] is recorded as “C (C represents 1000-9999 nM)”.

Turning to `Cn1cc2cc(-c3ccc4nc(N5CC[C@H](NC6CCC6)C5)ccc4n3)c(O)cc2n1` [Compound 156], the 50% inhibitory concentration (IC50) was 100 to 1000 nM in data set [1] and under 100 nM in data set [2]. Further, in data set [3], the “Effect of Exemplary Compounds” value was “B (B represents 100-1000 nM)”.

Consider `CC(C)N[C@H]1CCN(c2ccc3nc(-c4cc5cn(C)nc5cc4O)ccc3n2)C1` [Compound 171], for which the IC50 in data set [1] is 100 to 1000 nM; in data set [2] it was under 100 nM. In data set [3], the “Effect of Exemplary Compounds” value is “B (B represents 100-1000 nM)”.

For the compound `Cc1cn2nc(-c3ccc4nc(N5CCC(NC(C)(C)C)C5)ccc4n3)cc(C)c2n1` (stereo not drawn) [Compound 186], the IC50 in data set [1] and in data set [2] was under 100 nM each time. The “Effect of Exemplary Compounds” value in data set [3] was “B (B represents 100-1000 nM)”.

As for `Cn1cc2cc(-c3ccc4nc(N5CC[C@H](NCC6CC6)C5)ccc4n3)c(O)cc2n1` [Compound 194], the half-maximal inhibitory concentration (IC50) was 100 to 1000 nM in data set [1] and under 100 nM in data set [2]. Further, in data set [3], the “Effect of Exemplary Compounds” value was “B (B represents 100-1000 nM)”.

Turning to `CN(C)C1CCN(c2ccc3nc(-c4cc5cn(C)nc5c(F)c4O)ncc3c2)CC1` [Compound 757, 5-{6-[4-(dimethylamino)piperidin-1-yl]quinazolin-2-yl}-7-fluoro-2-methylindazol-6-ol], the half-inhibitory concentration (IC50) in data set [1] and in data set [2] was 1000 to 10000 nM each time. For the same compound, the “Effect of Exemplary Compounds” value in data set [3] was “A (A represents <100 nM)”.

For the compound `C[C@@H]1CN(c2cc(F)c3nc(-c4cc(F)c5nn(C)cc5c4)ccc3c2)C[C@H](C)N1` [Compound 758, 6-[(3R,5S)-3,5-dimethylpiperazin-1-yl]-8-fluoro-2-(7-fluoro-2-methylindazol-5-yl)quinoline], the concentration for half-maximal inhibition (IC50) lay in the range of 1000 to 10000 nM in data set [1] and 100 to 1000 nM in data set [2]. The “Effect of Exemplary Compounds” value in data set [3] is given as “B (B represents 100-1000 nM)”.

`C[C@@H]1CN(c2cc(F)c3nc(-c4cc5cn(C)nc5c(F)c4O)ccc3c2)C[C@H](C)N1` [Compound 763, 5-{6-[(3R,5S)-3,5-dimethylpiperazin-1-yl]-8-fluoroquinolin-2-yl}-7-fluoro-2-methylindazol-6-ol hydrochloride]: the concentration for half-maximal inhibition (IC50) in data set [1] was 1000 to 10000 nM; in data set [2], under 100 nM. For the same compound, the “Effect of Exemplary Compounds” value in data set [3] is recorded as “A (A represents <100 nM)”.

`C[C@@H]1CN(c2cc(F)c3nc(-c4cc5cn(C)nc5cc4O)ccc3c2)C[C@H](C)N1` [Compound 768, 5-{6-[(3R,5S)-3,5-dimethylpiperazin-1-yl]-8-fluoroquinolin-2-yl}-2-methylindazol-6-ol hydrochloride]: the IC50 in data set [1] and in data set [2] was 1000 to 10000 nM each time. For the same compound, the “Effect of Exemplary Compounds” value in data set [3] was “C (C represents 1000-9999 nM)”.

`Cc1cn2cc(-c3ncc4cc(N5C[C@@H](C)N[C@@H](C)C5)ccc4n3)cc(F)c2n1` [Compound 773, 6-[(3R,5S)-3,5-dimethylpiperazin-1-yl]-2-{8-fluoro-2-methylimidazo[1,2-a]pyridin-6-yl}quinazoline]: the IC50 in data set [1] was 1000 to 10000 nM; in data set [2], 100 to 1000 nM. In addition, the “Effect of Exemplary Compounds” value in data set [3] is listed as “B (B represents 100-1000 nM)”.

`Cc1cn2cc(-c3nc(C(=O)NC4CCC4)c4cc(N5C[C@@H](C)N[C@@H](C)C5)ccc4n3)cc(F)c2n1` [Compound 779, N-cyclobutyl-6-[(3R,5S)-3,5-dimethylpiperazin-1-yl]-2-{8-fluoro-2-methylimidazo[1,2-a]pyridin-6-yl}quinazoline-4-carboxamide]: the 50% inhibitory concentration (IC50) in data set [1] fell in the range of 1000 to 10000 nM; in data set [2], 100 to 1000 nM. In data set [3], the “Effect of Exemplary Compounds” value is on record as “A (A represents <100 nM)”.

As to `Cc1c(O)c(-c2nc(C(N)=O)c3cc(N4C[C@H](C)N[C@@H](C)C4)ccc3n2)cc2cn(C)nc12` [Compound 796], the IC50 in data set [1] is over 10000 nM; in data set [2], 100 to 1000 nM. Moreover, the “Effect of Exemplary Compounds” value in data set [3] is “A (A represents <100 nM)”.

Turning to `C[C@H]1CN(c2ccc3nc(-c4cc5cn(C)nc5cc4O)nc(C(N)=O)c3c2)C[C@H](C)N1` [Compound 797], the IC50 in data set [1] is over 10000 nM; in data set [2] it was 100 to 1000 nM. Besides, in data set [3], the “Effect of Exemplary Compounds” value is given as “A (A represents <100 nM)”.

With `Cc1cn2cc(-c3ncc4cc(N5C[C@H](C)N[C@@H](C)C5)ccc4n3)cc(F)c2n1` [Compound 803, 6-[(3S,5S)-3,5-dimethylpiperazin-1-yl]-2-{8-fluoro-2-methylimidazo[1,2-a]pyridin-6-yl}quinazoline], the half-inhibitory concentration (IC50) in data set [1] and in data set [2] was 100 to 1000 nM in each case. Moreover, the “Effect of Exemplary Compounds” value in data set [3] is recorded as “A (A represents <100 nM)”.

With `Cc1c(O)c(-c2ccc3cc(N4CCNC5(CC5)C4)cc(F)c3n2)cc2cn(C)nc12` [Compound 805, 5-(6-{4,7-diazaspiro[2.5]octan-7-yl}-8-fluoroquinolin-2-yl)-2,7-dimethylindazol-6-ol], the IC50 in data set [1] is 100 to 1000 nM; in data set [2], under 100 nM. Further, in data set [3], the “Effect of Exemplary Compounds” value is “B (B represents 100-1000 nM)”.
